Reference: article PMC3413639 (PLoS ONE, 2012)
Several values for one entry are separate records, joined by “and”; a condition that tells them apart may be missing. Equal values may be shown once. Read-outs that look alike come from different tables or passages of the source.

Assays:
[1] = target: T1, 5-HT1A receptors (Rattus norvegicus, UniProt P19327); set-up: method as in earlier work; conditions: rat hippocampal homogenates; read-out: Ki (in vitro estimate); cited from earlier work
T1 sequence (P19327 1-422): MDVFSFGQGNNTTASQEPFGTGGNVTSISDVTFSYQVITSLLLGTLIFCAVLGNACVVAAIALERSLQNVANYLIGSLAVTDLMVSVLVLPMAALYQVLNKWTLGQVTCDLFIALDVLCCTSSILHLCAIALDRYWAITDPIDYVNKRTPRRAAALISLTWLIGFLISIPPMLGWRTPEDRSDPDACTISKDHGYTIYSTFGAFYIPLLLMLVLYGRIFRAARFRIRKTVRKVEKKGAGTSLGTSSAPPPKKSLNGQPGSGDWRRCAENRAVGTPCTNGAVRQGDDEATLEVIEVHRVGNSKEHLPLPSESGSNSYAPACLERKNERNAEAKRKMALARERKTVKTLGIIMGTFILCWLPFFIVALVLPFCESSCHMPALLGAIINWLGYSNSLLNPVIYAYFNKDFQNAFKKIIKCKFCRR

[2] = target: T1, 5-HT1A receptors; assay: Ex vivo ARG, 5-HT1A receptor occupancy after drug administration; format: in vivo; set-up: Twenty-micrometer-thick frozen brain sections were preincubated; from tissue; host or cells: rat brain (hippocampus and raphe nucleus): frozen sections or living animals; conditions: for ED50: rat, po, ex vivo ARG, read-out: ED50 (5-HT1A receptor occupancy)
Method: Animals were then killed by decapitation 5 h and 30 min after their administration, respectively. Autoradiographic analysis was performed using procedures similar to in vitro ARG except for incubation temperature (37°C) and times for preincubation (30 sec), incubation (5 min) and rinsing (1 min). […] The doses of these drugs at half-maximal effect (ED50) were determined according to the following relationship: [drawing 2] where D is the dose of the drug.

[3] = target: T1, 5-HT1A receptors; assay: [11C]WAY-100635-PET of rats treated with 5,7-DHT, a toxicant for 5-HT neurons; conditions: 30 mg/kg oral
[4] = Brain-to-plasma ratio of Wf-516; format: in vivo; conditions: at the time of reaching maximal plasma concentration, unpublished data
[5] = system: 5-HTTs; set-up: method as in PMID 19236731; conditions: cited from earlier work
[6] = target: T1, 5-HT1A receptors; assay: Autoradiographic [35S]GTPγS binding in rat brain sections; format: biochemical; set-up: Twenty-micrometer-thick frozen brain sections were preincubated; from tissue; host or cells: rat brain (hippocampus and raphe nucleus): frozen sections or living animals; conditions: raphe nucleus; 10 µM; p<0.01; increment smaller than that by 8-OH-DPAT
Method: Autoradiographic procedures were performed as described previously, with some modifications. The sections were preincubated for 15 min in 50 mM 4-(2-hydroxyethyl)-1-piperazineethanesulfonic acid (HEPES; pH 7.4) containing 10 mM NaCl, 3 mM MgCl2 and 0.2 mM ethylene glycol tetraacetic acid. A second preincubation using the same buffer containing 2 mM GDP was performed for 15 min. The sections were subsequently incubated in the same buffer containing 2 mM GDP, 0.2 mM dithiothreitol and 0.04 nM [^35S]GTPγS for 120 min. Basal [^35S]GTPγS binding was defined in the absence of test drugs. […] Nonspecific binding was estimated using 10 µM nonradioactive GTPγS. The incubation was terminated by ice-cold 50 mM HEPES (pH 7.0). The sections were desalted with ice-cold distilled water, dried, and placed in contact with an imaging plate for 2 days. Signal detection and image analysis were performed as described above.

[7] = target: T1, 5-HT1A receptors; assay: [11C]WAY-100635-PET, BPND and 5-HT1A receptor occupancy; format: in vivo; set-up: Twenty-micrometer-thick frozen brain sections were preincubated; from tissue; host or cells: rat brain (hippocampus and raphe nucleus): frozen sections or living animals; conditions: for BPND Hippocampus / BPND Raphe: [11C]WAY-100635, about 5 h before scan, mean ± S.E.; for receptor occupancy at 1 mg/kg / receptor occupancy at 3 mg/kg / receptor occupancy at 10 mg/kg / receptor occupancy at 30 mg/kg / receptor occupancy at 100 mg/kg: rat
Method: All PET scans were carried out using a microPET Focus 220 scanner (Siemens Medical Solutions USA, Knoxville, TN). The rats were anesthetized with 1.5–2% isoflurane in air (2 L/min flow rate). […] All list-mode data were stored into 3D sinograms, which were then Fourier-rebinned into 2D sinograms (26 frames: 4×1, 8×2, and 14×5 min). Images were reconstructed using 2D-filtered back-projection with a 0.5-mm Hanning filter. All PET images were manually coregistered to the MRI template by spatial translation and rotation of original PET images without geometric expansion and contraction. ROIs were placed on the hippocampus and raphe nucleus using PMOD® image analysis software (PMOD Group, Zurich, Switzerland) with reference to the MRI template. Fine-tuning of the location of ROIs was then performed based on PET images at an early phase (0–30 min) of the scan in order to compensate for small mismatches between coregistered PET and MR images. The cerebellum was used as reference tissue because of its negligible density of 5-HT1A receptors.

[8] = target: T1, 5-HT1A receptors; assay: [18F]MPPF PET, BPND and 5-HT1A receptor occupancy; format: in vivo; set-up: Rats were sacrificed by decapitation; Twenty-micrometer-thick frozen brain sections were preincubated; from tissue; host or cells: rat brain (hippocampus and raphe nucleus): frozen sections or living animals; conditions: mean ± S.E.; for receptor occupancy at 30 mg/kg: rat
[9] = po, read-out: Occupancy (%) Hippocampus
[10] = po, read-out: Occupancy (%) Raphe

In the case of `Cc1nnc(-c2cc3c(OC[C@@H](O)CN4CCC(c5ccc(Cl)c(Cl)c5)CC4)cccc3o2)o1.Cl` [Wf-516, (2S)-1-[4-(3,4-dichlorophenyl)piperidin-1-yl]-3-[2-(5-methyl-1,3,4-oxadiazol-2-yl)benzo[b]furan-4-yloxy]propan-2-ol monohydrochloride], the Ki [1] is listed as 7.4 nM, the “5-HT1A receptor binding (occupancy), dose-dependent up to” value ([2]; oral, 5 h after administration, irrespective of region) is listed as “approximately 80%” and the ED50 ([2]; hippocampus) is listed as 5.3 mg/kg. The ED50 ([2]; raphe nucleus) was 4.2 mg/kg, the “Change of BPND in 5,7-DHT-treated rats” value ([3]; hippocampus, compared with baseline) was “significant decrease of BPND” and the “Change of BPND in 5,7-DHT-treated rats” value ([3]; raphe nucleus) was “no additional reduction of BPND”. The Kp [4] was ~2, the “ED50 for blockade of 5-HTTs” value ([5]; previous PET study) was 3 mg/kg and the “Occupancy of 5-HTT among regions” value ([5]; previous observation) was “homogenous among regions”. For the same molecule, the “[35S]GTPγS binding compared with 1 µM WAY-100635” value [6] was “significantly increased”, the “BPND Hippocampus” value ([7]; 1 mg/kg oral) was 5.612±0.356 and the “BPND Raphe” value ([7]; 1 mg/kg oral) was 2.128±0.109. The “BPND Hippocampus” value ([7]; 3 mg/kg oral) was 5.589±0.410, the “BPND Raphe” value ([7]; 3 mg/kg oral) was 2.024±0.097 and the “BPND Hippocampus” value ([7]; 10 mg/kg oral) was 4.937±0.550. For the same molecule, the “BPND Raphe” value ([7]; 10 mg/kg oral) was 1.620±0.126, the “BPND Hippocampus” value ([7]; 30 mg/kg oral) was 4.836±0.441 and the “BPND Raphe” value ([7]; 30 mg/kg oral) was 1.271±0.194. For the same molecule, the “BPND Hippocampus” value ([7]; 100 mg/kg oral) was 4.962±0.400, the “BPND Raphe” value ([7]; 100 mg/kg oral) was 1.212±0.073 and the “Difference in maximal occupancy between hippocampus and raphe nucleus” value ([7]; oral, PET regression curves) was “more than 2.5 fold”. For the same molecule, the “Maximal occupancy as calculated by the regression curve” value ([7]; raphe nucleus, oral, PET) was 53.8% and ~50%, the receptor occupancy at 1 mg/kg [7, 9] was 7 ± 2.7% and the receptor occupancy at 3 mg/kg [7, 9] was 6.8 ± 7.1%. For the same molecule, the receptor occupancy at 10 mg/kg [7, 9] was 18.8 ± 6%, the receptor occupancy at 30 mg/kg [7, 9] was 20.3 ± 4.1% and the receptor occupancy at 100 mg/kg [7, 9] was 17.8 ± 4.9%. It also gave a receptor occupancy at 1 mg/kg [7, 10] of 8.5 ± 7.6%, a receptor occupancy at 3 mg/kg [7, 10] of 13.2 ± 6.1% and a receptor occupancy at 10 mg/kg [7, 10] of 30.6 ± 6.4%. The receptor occupancy at 30 mg/kg [7, 10] was 46.3 ± 6.9%, the receptor occupancy at 100 mg/kg [7, 10] was 48.2 ± 3.3% and the receptor occupancy at 3 mg/kg ([7]; 3 mg/kg oral, PET, read-out: Difference in occupancy between hippocampus and raphe nucleus) was ~100%. For the same molecule, the “BPND Hippocampus” value ([8]; 30 mg/kg) was 1.100±0.015, the “BPND Raphe” value ([8]; 30 mg/kg) was 0.227±0.027 and the receptor occupancy at 30 mg/kg ([8]; read-out: Occupancy (%) Hippocampus) was 23.3 ± 1.5%. The receptor occupancy at 30 mg/kg ([8]; read-out: Occupancy (%) Raphe) was 45.7 ± 6.5%.
